Experimental findings from patent publication US5455351A, “Retroviral protease inhibiting piperazine compounds” (Abbott Laboratories, priority 1993, dated 1995) are described below.

For one data set, the target named is T1, HIV-1 protease (HIV-1 M:B_HXB2R, UniProt P04585).
T1 construct: fluorogenic DABCYL/EDANS peptide substrate
Description: Fluorogenic Assay for Screening Inhibitors of HIV Protease. The settings on record: inhibitor concentration 0.5 nanomolar; pH 4.5; 30° C.; 1.3 μM fluorogenic substrate; read-out: Percent Inhibition. The format is biochemical. As for the experimental part: The inhibitory potency of the compounds of the invention can be determined by the following method.
A compound of the invention is dissolved in DMSO and a small aliquot further diluted with DMSO to 100 times the final concentration desired for testing. The reaction is carried out in a 6×50 mm tube in a total volume of 300 microliters. The final concentrations of the components in the reaction buffer are: 125 mM sodium acetate, 1 M sodium chloride, 5 mM dithiothreitol, 0.5 mg/ml bovine serum albumin, 1.3 μM fluorogenic substrate, 2% (v/v) dimethylsulfoxide, pH 4.5. After addition of inhibitor, the reaction mixture is placed in the fluorometer cell holder and incubated at 30° C. for several minutes. The reaction is initiated by the addition of a small aliquot of cold HIV protease. The fluorescence intensity (excitation 340 nm, emmision 490 nM) is recorded as a function of time. The reaction rate is determined for the first six to eight minutes. The observed rate is directly proportional to the moles of substrate cleaved per unit time. The percent inhibition is 100 X (1 -(rate in presence of inhibitor)/(rate in absence of inhibitor)).
Fluorogenic substrate: DabcyI-Ser-GIn-Asn-Tyr-Pro-Ile-VaI-GIn-EDANS wherein DABCYL=4-(4-dimethylamino-phenyl)azobenzoic acid and EDANS=5-((2-aminoethyl)amino)-naphthalene-1-sulfonic acid.

The nature of data set [1]: Viability (LC50) of MT4 cells. The data set is classed as cell-based. The settings on record: human, read-out: LC50 (concentration of compound at which 50% of the cells remain viable). The text has this:
(§1) The anti-HIV activity of the compounds of the invention can be determined in MT4 cells according to the procedure of Kempf, et. al. (Antimicrob. Agents Chemother. 1991, 35, 2209). The IC50 is the concentration of compound that gives 50% inhibition of the cytopathic effect of HIV. The LC50 is the concentration of compound at which 50% of the cells remain viable.

The test system of the next data set is HIV-13B. Description: Antiviral activity: inhibition of the cytopathic effect of HIV in MT4 cells. The data set is classed as cell-based. Conditions: Human immunodeficiency virus 1; HIV-13B in MT4 cells; read-out: IC50 (concentration of compound that gives 50% inhibition of the cytopathic effect of HIV).
Text: as §1
(Protection from cytopathic effect is a common read-out in antiviral testing.)

`CC(C)(C)NC(=O)[C@@H]1CN(Cc2cncs2)CCN1C[C@@H](O)C[C@@H](Cc1ccccc1)C(=O)N[C@H]1c2ccccc2C[C@H]1O` [Example 1R, (1S,2R,2'R,4'S,2"S)-1-((2-Benzyl-5-(((2-(t-butyl)amino)carbonyl)-4-((thiazol-5-yl)methyl)piperazin-1-yl)-4-hydroxypentanoyl)amino)indan-2-ol]: the inhibition (usually the percentage by which the read-out fell short of the control) at 0.0005 µM at HIV-1 protease came to 61%. For the same compound, the CC50 in data set [1] was more than 100 µM. Also, the IC50 in the data set on HIV-13B was 0.016 µM.
